Molecular target: T1, human PTH1 receptor (Homo sapiens, UniProt Q03431)
T1 sequence (Q03431 27-593): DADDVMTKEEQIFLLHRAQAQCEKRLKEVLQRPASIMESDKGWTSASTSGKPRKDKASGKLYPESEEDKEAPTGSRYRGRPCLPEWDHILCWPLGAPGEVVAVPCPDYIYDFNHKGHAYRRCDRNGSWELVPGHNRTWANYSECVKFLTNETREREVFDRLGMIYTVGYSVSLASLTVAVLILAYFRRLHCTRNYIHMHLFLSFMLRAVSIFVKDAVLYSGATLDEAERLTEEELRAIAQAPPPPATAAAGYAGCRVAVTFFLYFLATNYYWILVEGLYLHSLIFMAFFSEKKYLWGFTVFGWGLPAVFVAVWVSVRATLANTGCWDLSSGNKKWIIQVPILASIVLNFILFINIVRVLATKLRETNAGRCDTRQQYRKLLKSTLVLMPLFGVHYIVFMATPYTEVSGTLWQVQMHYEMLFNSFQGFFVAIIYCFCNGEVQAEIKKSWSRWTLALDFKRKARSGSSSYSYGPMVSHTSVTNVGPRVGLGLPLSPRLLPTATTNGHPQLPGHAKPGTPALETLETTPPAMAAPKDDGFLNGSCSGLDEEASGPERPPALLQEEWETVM
Assay: In vitro cAMP signal activity in HKRK-B7 cells (LLC-PK1 cells overexpressing the human PTH1 receptor)
Format: cell-based
Conditions: HKRK-B7 cells, compound at 1×10^−3 M

[1] = cAMP produced as percentage of that produced by hPTH(1-34) at 100 nM

Structure (SMILES)	cAMP production activity (%) [1] [%]	cAMP production activity (%) ([…], 0.1 µM)
Cc1cc(N(C)C(N)=O)cc(C)c1CCS(=O)(=O)N1CCC2(CC1)N=C(C1CCC(CC(F)(F)C(F)(F)F)CC1)NC2=O (stereo not drawn) [Compound 1042, 1-[3,5-dimethyl-4-(2-{4-oxo-2-[4-(2,2,3,3,3-pentafluoro-propyl)-cyclohexyl]-1,3,8-triaza-spiro[4.5]dec-1-ene-8-sulfonyl}-ethyl)-phenyl]-1-methyl-urea]	102	
Cc1cc(C(=O)N2CCN(C(=O)N(C)C)CC2)ccc1CCS(=O)(=O)N1CCC2(CC1)N=C(c1cccc(C(F)(F)F)c1)NC2=O [Compound 382, 4-(3-methyl-4-{2-[4-oxo-2-(3-trifluoromethyl-phenyl)-1,3,8-triaza-spiro[4.5]dec-1-ene-8-sulfonyl]-ethyl}-benzoyl)-piperazine-1-carboxylic acid dimethylamide]	36	
Cc1cc(OCCC(O)CO)cc(C)c1/C=C/S(=O)(=O)N1CCC2(CC1)N=C(c1ccc(F)c(C(F)(F)F)c1)NC2=O (stereo not drawn) [Compound 639, 8-{(E)-2-[4-(3,4-Dihydroxy-butoxy)-2,6-dimethyl-phenyl]-ethenesulfonyl}-2-(4-fluoro-3-trifluoromethyl-phenyl)-1,3,8-triaza-spiro[4.5]dec-1-en-4-one]	101	
Cc1cc(OCCC(O)CO)ccc1/C=C/S(=O)(=O)N1CCC2(CC1)N=C(c1cccc(C(F)(F)F)c1F)NC2=O (stereo not drawn) [Compound 247, 8-{(E)-2-[4-(3,4-Dihydroxy-butoxy)-2-methyl-phenyl]-ethenesulfonyl}-2-(2-fluoro-3-trifluoromethyl-phenyl)-1,3,8-triaza-spiro[4.5]dec-1-en-4-one]	81	
CNc1cc(C)c(/C=C/[S@TB3](=O)(=O)N2CCC3(CC2)N=C(CCCCCCCCCCCNC(=O)OC(C)(C)C)NC3=O)c(C)c1 [Compound 1106, (11-{8-[(E)-2-(2,6-dimethyl-4-methylamino-phenyl)-ethenesulfonyl]-4-oxo-1,3,8-triaza-spiro[4.5]dec-1-en-2-yl}-undecyl)-carbamic acid tert-butyl ester]	58	
CC(=O)N(CCO)c1ccc(C)c(CCS(=O)(=O)N2CCC3(CC2)N=C(c2cccc(OC(F)(F)F)c2)NC3=O)c1 [Compound 326, N-(2-Hydroxy-ethyl)-N-(4-methyl-3-{2-[4-oxo-2-(3-trifluoromethoxy-phenyl)-1,3,8-triaza-spiro[4.5]dec-1-ene-8-sulfonyl]-ethyl}-phenyl)-acetamide]	76	
CC(=O)N(CC(F)(F)F)c1ccc(/C=C/S(=O)(=O)N2CCC3(CC2)N=C(c2cccc(OC(F)(F)F)c2)NC3=O)c(C)c1 [Compound 613, N-(3-methyl-4-{(E)-2-[4-oxo-2-(3-trifluoromethoxy-phenyl)-1,3,8-triaza-spiro[4.5]dec-1-ene-8-sulfonyl]-vinyl}-phenyl)-N-(2,2,2-trifluoro-ethyl)-acetamide]	44	
COc1cc(NC(C)=O)ccc1CCS(=O)(=O)N1CCC2(CC1)N=C(C1CCC(C)CC1)NC2=O (stereo not drawn) [Compound 655, N-(3-Methoxy-4-{2-[2-(4-methyl-cyclohexyl)-4-oxo-1,3,8-triaza-spiro[4.5]dec-1-ene-8-sulfonyl]-ethyl}-phenyl)-acetamide]	74	
COc1cc(N(C)C(N)=O)cc(C)c1/C=C/S(=O)(=O)N1CCC2(CC1)N=C(C1CCC(C)CC1)NC2=O (stereo not drawn) [Compound 728, 1-(3-Methoxy-5-methyl-4-{(E)-2-[2-(4-methyl-cyclohexyl)-4-oxo-1,3,8-triaza-spiro[4.5]dec-1-ene-8-sulfonyl]-vinyl}-phenyl)-1-methyl-urea]	87	
CCCCCCCCCC1=NC2(CCN(S(=O)(=O)CCc3ccc(C(=O)N4CC[C@@H](O)C4)cc3C)CC2)C(=O)N1 [Compound 979, 8-{2-[4-((R)-3-hydroxy-pyrrolidine-1-carbonyl)-2-methyl-phenyl]-ethanesulfonyl}-2-nonyl-1,3,8-triaza-spiro[4.5]dec-1-en-4-one]	145	
Cc1cc2ccc1CCS(=O)(=O)N1CCC3(CC1)N=C(NC3=O)c1cc(cc(C(F)(F)F)c1)OCC/C=C/CCCCCCN(C)C2=O [Compound 1416]	48	
Cc1cc(OCCC(O)CO)ccc1CCS(=O)(=O)N1CCC2(CC1)N=C(c1cccc(C(F)(F)F)c1)NC2=O (stereo not drawn) [Compound 284, 8-{2-[4-(3,4-dihydroxy-butoxy)-2-methyl-phenyl]-ethanesulfonyl}-2-(3-trifluoromethyl-phenyl)-1,3,8-triaza-spiro[4.5]dec-1-en-4-one]	82	
CC(C)(C)CCN1CCCC(C2=NC3(CCN(S(=O)(=O)c4cccc(Cl)c4)CC3)C(=O)N2)C1 (stereo not drawn) [Compound 453, 8-(3-Chloro-benzenesulfonyl)-2-[1-(3,3-dimethyl-butyl)-piperidin-3-yl]-1,3,8-triaza-spiro[4.5]dec-1-en-4-one]	16	
Cc1cc(N2CCOCC2=O)cc(C)c1CCS(=O)(=O)N1CCC2(CC1)N=C(C1CCC(CCC(F)(F)F)CC1)NC2=O (stereo not drawn) [Compound 764, 8-{2-[2,6-dimethyl-4-(3-oxo-morpholin-4-yl)-phenyl]-ethanesulfonyl}-2-[4-(3,3,3-trifluoro-propyl)-cyclohexyl]-1,3,8-triaza-spiro[4.5]dec-1-en-4-one]	124	
Cc1cc(C(=O)N2CCN(CCCN(C)C)CC2)cc(C)c1/C=C/S(=O)(=O)N1CCC2(CC1)N=C(c1cccc(OC(F)(F)F)c1)NC2=O [Compound 397, 8-((E)-2-{4-[4-(3-dimethylamino-propyl)-piperazine-1-carbonyl]-2,6-dimethyl-phenyl}-ethenesulfonyl)-2-(3-trifluoromethoxy-phenyl)-1,3,8-triaza-spiro[4.5]dec-1-en-4-one]	126	
CCCCCCCC#CC1=NC2(CCN([S@TB17](=O)(=O)CCc3c(C)cc(N(C)C(N)=O)cc3C)CC2)C(=O)N1 [Compound 1083, 1-{3,5-dimethyl-4-[2-(2-non-1-ynyl-4-oxo-1,3,8-triaza-spiro[4.5]dec-1-ene-8-sulfonyl)-ethyl]-phenyl}-1-methyl-urea]	113	
Cc1cc(C(=O)N(C)C)ccc1CCS(=O)(=O)N1CCC2(CC1)N=C(c1cccc(Br)c1)NC2=O [Compound 91, 4-{2-[2-(3-bromo-phenyl)-4-oxo-1,3,8-triaza-spiro[4.5]dec-1-ene-8-sulfonyl]-ethyl}-3,N,N-trimethyl-benzamide]	73	
Cc1cc(C(=O)N(C)C)ccc1CCS(=O)(=O)N1CCC2(CC1)N=C(c1ccc(C(F)(F)F)cc1F)NC2=O [Compound 139, 4-{2-[2-(2-fluoro-4-trifluoromethyl-phenyl)-4-oxo-1,3,8-triaza-spiro[4.5]dec-1-ene-8-sulfonyl]-ethyl}-3,N,N-trimethyl-benzamide]	64	
CC(=O)N1CCC(N(C(C)=O)c2ccc(/C=C/S(=O)(=O)N3CCC4(CC3)N=C(c3cccc(OC(F)(F)F)c3)NC4=O)c(C)c2)CC1 [Compound 1294, N-(1-Acetyl-piperidin-4-yl)-N-(3-methyl-4-{(E)-2-[4-oxo-2-(3-trifluoromethoxy-phenyl)-1,3,8-triaza-spiro[4.5]dec-1-ene-8-sulfonyl]-vinyl}-phenyl)-acetamide]		76
Cc1cc(C(=O)N(C)C)c(F)cc1CCS(=O)(=O)N1CCC2(CC1)N=C(c1cccc(C(F)(F)F)c1)NC2=O [Compound 418, 2-Fluoro-5,N,N-trimethyl-4-{2-[4-oxo-2-(3-trifluoromethyl-phenyl)-1,3,8-triaza-spiro[4.5]dec-1-ene-8-sulfonyl]-ethyl}-benzamide]	84	
Cc1cc(N2C(=O)OCC2C)ccc1/C=C/S(=O)(=O)N1CCC2(CC1)N=C(C1CCC(C)CC1)NC2=O (stereo not drawn) [Compound 579, 2-(4-methyl-cyclohexyl)-8-{(E)-2-[2-methyl-4-(4-methyl-2-oxo-oxazolidin-3-yl)-phenyl]-ethenesulfonyl}-1,3,8-triaza-spiro[4.5]dec-1-en-4-one]	55	
CCCCC#CCCCC1=NC2(CCN(S(=O)(=O)/C=C/c3c(C)cc(N(C)C(N)=O)cc3C)CC2)C(=O)N1 [Compound 1024, 1-{3,5-dimethyl-4-[(E)-2-(2-non-4-ynyl-4-oxo-1,3,8-triaza-spiro[4.5]dec-1-ene-8-sulfonyl)-vinyl]-phenyl}-1-methyl-urea]	66	
O=C1NC(c2cccc(OC(F)(F)F)c2)=NC12CCN(S(=O)(=O)CCc1cccc3ncccc13)CC2 [Compound 654, 8-(2-quinolin-5-yl-ethanesulfonyl)-2-(3-trifluoromethoxy-phenyl)-1,3,8-triaza-spiro[4.5]dec-1-en-4-one]	50	
O=C1NC(C2CCC(F)(F)CC2)=NC12CCN(S(=O)(=O)/C=C/c1cccc3c1ccn3C[C@H](O)CO)CC2 [Compound 241, 2-(4,4-difluoro-cyclohexyl)-8-{(E)-2-[1-((S)-2,3-dihydroxy-propyl)-1H-indol-4-yl]-ethenesulfonyl}-1,3,8-triaza-spiro[4.5]dec-1-en-4-one]	44	
